{
  "source": "patent US7872025B2",
  "about": "(Bridge Pharma, Inc., priority 1999, dated 2011)",
  "key": {"mice": {"test_system": "mice", "experiment": "Sedative side effects (physostigmine-induced lethality test)", "details": "mouse, in vivo", "procedure": "The physostigmine-induced lethality test is being used in the present studies. […] In the present study, test compounds are administered orally 60 minutes prior to physostigmine. The numbers of survivors are counted 30 minutes after physostigmine administration."}, "histamine H-2": {"molecular_target": "histamine H-2 (Homo sapiens, UniProt P25021)", "sequence (P25021 whole entry)": "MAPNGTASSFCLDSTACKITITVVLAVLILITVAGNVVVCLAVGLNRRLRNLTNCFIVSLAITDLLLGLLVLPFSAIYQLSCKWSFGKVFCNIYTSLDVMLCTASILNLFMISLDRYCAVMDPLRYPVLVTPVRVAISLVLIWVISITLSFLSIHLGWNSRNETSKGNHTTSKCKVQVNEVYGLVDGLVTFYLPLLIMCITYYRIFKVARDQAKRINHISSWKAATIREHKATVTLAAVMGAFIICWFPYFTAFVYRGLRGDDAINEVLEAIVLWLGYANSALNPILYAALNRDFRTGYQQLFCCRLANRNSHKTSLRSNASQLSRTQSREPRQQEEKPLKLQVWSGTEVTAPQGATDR", "experiment": "Histamine H-2 antagonism (no method given)"}, "histamine H1-receptor": {"molecular_target": "T1, histamine H1-receptor (Cavia porcellus, UniProt P31389)", "T1 construct": "from tissue; host or cells: guinea pig cerebellum membranes", "T1 sequence (P31389 whole entry)": "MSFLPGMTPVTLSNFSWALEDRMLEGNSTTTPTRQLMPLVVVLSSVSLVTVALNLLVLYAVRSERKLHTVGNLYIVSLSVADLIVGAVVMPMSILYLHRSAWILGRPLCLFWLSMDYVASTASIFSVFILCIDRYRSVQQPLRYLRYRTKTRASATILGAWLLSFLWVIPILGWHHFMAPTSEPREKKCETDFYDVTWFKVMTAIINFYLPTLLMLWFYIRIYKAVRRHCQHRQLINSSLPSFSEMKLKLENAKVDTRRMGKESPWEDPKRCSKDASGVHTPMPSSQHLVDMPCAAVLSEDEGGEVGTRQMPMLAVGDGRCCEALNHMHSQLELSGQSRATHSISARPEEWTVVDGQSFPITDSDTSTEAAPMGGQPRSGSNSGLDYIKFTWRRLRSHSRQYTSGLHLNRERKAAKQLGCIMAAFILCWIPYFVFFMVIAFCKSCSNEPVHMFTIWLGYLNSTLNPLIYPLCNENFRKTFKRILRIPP", "experiment": "Binding to histaminergic receptors (3H-pyrilamine binding)", "parameters": "species or system guinea pig", "procedure": "Briefly, membranes from guinea pig cerebellum are incubated with ^3H-pyrilamine and varying concentrations of the test compound(s). The specific binding of the radioactive ligand to the receptor is defined as the difference between total binding and nonspecific binding, determined in the presence of an excess of unlabelled ligand. The results are expressed as percentage of specific binding in the presence of compounds. […] These parameters are obtained by Hill equation curve fitting using Sigmaplot™ software."}, "inflammation": {"test_system": "inflammation", "experiment": "Anti-inflammatory effects (bronchial eosinophil accumulation; mouse ear croton oil inflammation)", "details": "in vivo", "procedure": "Inhibition of eosinophil accumulation in lung is determined in sensitized guinea pigs (400 to 600 grams) following intraperitoneal injection of an allergen such as for example PAF (platelet aggregating factor) or bovine serum albumin. At a predetermined time thereafter, the animals are killed with a barbiturate. The trachea is exposed and cannulated. 6×10 ml aliquots of buffered modified Tyrode's solution (composition: NaHCO3 11.9, NaCl 136.9, KCl 2.7, Na2HPO4 0.4, glucose 5.6, EDTA 19.8, gelatin 0.1% w/v; pH 7.4) are introduced successively and aspirated by gentle compression of the lungs. Total fluid recovery normally exceeds 80%. Cell suspensions are concentrated by low speed centrifugation (200 G for 10 min) and the resulting cell pellet is resuspended in 1 ml modified Tyrode's solution. Total cell counts are made by diluting 10 μl of cell suspension in 90 μl of Turk's fluid. Differential cell counts are made from smears fixed in methanol (100%) and stained in Leishman stain. A total of at least 500 cells per smear are counted at 1000 fold magnification, in order to differentiate cell types. Drugs are administered as sustained subcutaneous infusions from an implanted Alza minipump (Alzet 2001 or similar) or by repeated oral or repeated parenteral injections.\nDermal antiinflammatory effects are tested using the mouse ear croton oil inflammation method. This test method is based on Tarrida, J. et al., Meth. Find. Exp. Clin. Pharmacol. (1996) 18(4):233-234 and Blazzo, et al., Prostaglandins (1995) 50:161-168. In short, male mice (25-30 g) are treated with 5 ml/kg of a 2 mg/ml solution of each test compound in physiological saline by intraperitoneal injection. Thirty minutes after injection, croton oil (0, 20 μl of 1.0% croton oil in acetone) or acetone (control) is topically applied to both ears of each mouse. Animals are restrained during croton oil or acetone application and then released into a cage. Before and at predetermined time intervals following croton oil or acetone application, groups of animals are anesthetized with halothane and euthanized by cervical dislocation. […]"}, "[1]": {"test_system": "bronchial or other smooth muscle tissues", "experiment": "Antihistaminic effects in vitro (histamine contractions of smooth muscle strips)", "parameters": "species or system guinea pigs", "details": "listed as racemic norketotifen", "procedure": "Strips of bronchial or other smooth muscle tissues are removed from the body of male guinea pigs weighing 400-600 g. The tissues are suspended in an oxygenated buffer of the composition (mM): NaCl, 133; KCl, 4.7; CaCl2, 2.5; MgSO4, 0.6; NaH2PO4, 1.3; NaHCO3, 16.3; and glucose, 7.7, or in a solution of a similar composition. The solution is maintained at 37.5 C. Contractions are recorded with isometric transducers (Model FT-10) on a Grass polygraph.\nIn order to assess the viability of each tissue and to serve as a frame of reference, contractions of each strip of tissue are recorded initially in response to exposure to an oxygenated buffer in which the NaCl is replaced by KCl to yield a concentration of 137.7 mM KCl. This is followed by return to the standard oxygenated buffer, and then by exposures to progressively increasing concentrations of histamine, with separate exposures to each concentration only until the peak response has been recorded. Then, leaving one tissue strip untreated, the remaining strips each are exposed for a predetermined time interval to one concentration of an antagonist. Finally, the responses to increasing concentrations of histamine followed by exposure to 137.7 mM KCl are recorded a second time."}},
  "note": "Entries after “also recorded” stand apart in the source; their conditions may differ.",
  "data": [
    {"compound": "CN1CCC(=C2c3ccccc3CC(=O)c3sccc32)CC1", "note": "(racemic) [ketotifen, 4-(1-methyl-4-piperidyline)-4H-benzo(4,5) cyclohepta-(1,2-b) thiophene-10-one, reference compound]", "values": [
      {"measurement": "sedative side effects", "setting": "mice", "result": "severe and dose-limiting sedative activity"},
      {"measurement": "histamine H-2 antagonism", "setting": "histamine H-2", "result": "varying degree of histamine H-2 antagonism"}
    ]},
    {"compound": "OC1Cc2ccccc2C(=C2CCNCC2)c2ccsc21", "note": "(stereo not drawn) [10-hydroxy-norketotifen]", "values": [
      {"measurement": "histamine H-1 receptor antagonism / blockade", "setting": "histamine H1-receptor", "result": "block histamine H-1 receptors"},
      {"measurement": "sedative side effects", "setting": "mice", "result": "significantly less sedation than ketotifen"},
      {"measurement": "anti-inflammatory effect", "setting": "inflammation", "result": "inhibit inflammation"}
    ]},
    {"compound": "CN1CCC(=C2c3ccccc3CC(O)c3sccc32)CC1", "note": "(stereo not drawn) [10-hydroxy-ketotifen]", "values": [
      {"measurement": "histamine H-1 receptor antagonism / blockade", "setting": "histamine H1-receptor", "result": "block histamine H-1 receptors"},
      {"measurement": "sedative side effects", "setting": "mice", "result": "significantly less sedation than ketotifen"},
      {"measurement": "anti-inflammatory effect", "setting": "inflammation", "result": "inhibit inflammation"}
    ]},
    {"compound": "CN1CCC(=C2c3ccccc3CC(=O)c3sccc32)CC1", "note": "[S-isomer of ketotifen]", "values": [
      {"measurement": "sedative side effects", "setting": "mice", "result": "not causing the severe sedative side effects of ketotifen"}
    ]},
    {"compound": "O=C1Cc2ccccc2C(=C2CCNCC2)c2ccsc21", "note": "(racemic) [nor-ketotifen]", "values": [
      {"measurement": "antihistaminic effects", "setting": "[1]", "result": "qualitatively similar to the antihistaminic effects of racemic ketotifen; also recorded: potent anti-inflammatory and anti-histaminic properties"},
      {"measurement": "histamine H-1 receptor antagonism / blockade", "setting": "histamine H1-receptor", "result": "histamine H-1 antagonists"},
      {"measurement": "sedative side effects", "setting": "mice", "result": "little or no sedative side effect"},
      {"measurement": "histamine H-2 antagonism", "setting": "histamine H-2", "result": "varying degree of histamine H-2 antagonism"},
      {"measurement": "anti-inflammatory effect", "setting": "inflammation", "result": "potent anti-inflammatory and anti-histaminic properties"}
    ]},
    {"compound": "CN1CCC(=C2c3ccccc3CC(=O)c3sccc32)CC1", "note": "[R(+)-ketotifen]", "values": [
      {"measurement": "sedative side effects", "setting": "mice", "result": "almost all the sedative side effects were found to reside in R(+)-ketotifen"}
    ]}
  ]
}
